Experimental data published in US20220062299A1, “USE OF GLUCOCORTICOID STEROIDS IN PREVENTING AND TREATING CONDITIONS OF MUSCLE WASTING, AGING AND METABOLIC DISORDER” (NORTHWESTERN UNIVERSITY, priority 2018, published 2022).

What was measured:
[1] = tested on: quadriceps muscle of mdx mice; experiment: Tissue respirometry on quadriceps muscle; assay type: in vivo, mouse; settings: weekly prednisone, opposite to daily dosing
Experimental: Tissue respirometry. Whole-tissue analysis of basal rates of oxygen consumption (OCR) and extracellular acidification (ECAR) was conducted adapting reported conditions for intact muscle tissue analysis (Shintaku and Guttridge, 2016) to the XF96 Extracellular Flux Analyzer platform (Agilent, Santa Clara, Calif.). Immediately after mouse sacrification, target muscle (quadriceps) tissues were quickly collected, rinsed in clean PBS buffer and dissected into approximately 2×2×2 mm pieces. At least three biopsies were sampled for each tissue. […] Respirometry analysis was then performed on equilibrated tissue biopsies using the following protocol for each basal or post-injection read: 3 min mix, 5 min delay, 2 min measure. Basal rate reads were collected for 6 consecutive times, then drugs were injected and control reads gathered for additional 3 consecutive times. […] Compound concentrations were determined on literature and/or preliminary test assays on wildtype muscle biopsies, and the concentration of the compound when loaded in the cartridge port was 10× in appropriate solvent (typically DMSO or ddH2O). OCR/ECAR reads were averaged for same tissue replicates and subtracted of background noise values (empty wells with only medium and appropriate compound). […]

[2] = tested on: mdx mice; experiment: Multi-modal imaging (FDG-PET, microCT, MR) of live mdx mice; assay type: in vivo, mouse; settings: weekly prednisone
Excerpt: Multi-modal Imaging (FDG-PET, microCT, MR). Mice were anesthetized in an induction chamber with 3% isoflurane in oxygen, weighed, and then transferred to a dedicated imaging bed with isoflurane delivered via nosecone at 1-2%. Mice were placed in the prone position on a plastic bed and immobilized to minimize changes in position between scans. Respiratory signals were monitored using a digital monitoring system developed by Mediso (Mediso-USA, Boston, Mass.). Mice were imaged with a preclinical microPET/CT imaging system (nanoScan PET/CT, Mediso-USA, Boston, Mass.). CT data was acquired with a 2.2× magnification, <60 μm focal spot, 2×2 binning, with 480 projection views over a full circle, using 50 kVp/[…], with a 300 ms exposure time. The projection data was reconstructed with a voxel size of 250 μm and using filtered (Butterworth filter) backprojection software from Mediso. A bone mineral density standard (GRM GmbH, Moehrendorf, Germany) with hydroxyapatite (HA) from 0 to 1200 mg HA/cm^3 was used to convert the CT images from Hounsfield units to bone mineral density. The HA standard was imaged with the same parameters. For PET imaging, a target of 10 MBq of ^18F-fluordeoxyglucose (FDG) was injected intravenously after mice had been fasted for four hours. PET acquisition parameters were as follows: 1:1 coincidence detection and 30-minute acquisition time. MLEM reconstruction was used with CT for attenuation correction and scattering. Pixel size was set to 0.3×0.3 mm. After completion of PET/CT, each mouse was transferred to the MRI scanner and a reference standard consisting of one tube of canola oil and one tube of water was positioned above its back. MRI was performed on a 9.4T Bruker Biospec MRI system with a 30 cm bore, a 12 cm gradient insert, and an AutoPac laser positioned motorized bed (Bruker Biospin Inc, Billerica, Mass.). Respiratory signals and temperature were monitored using an MR-compatible physiologic monitoring system (SA Instruments, Stonybrook, N.Y.); a warm water circulating system was used to maintain body temperature. A 72 mm quadrature volume coil (Bruker Biospin, Inc, Billerica, Mass.) was used to image each mouse's whole body in two overlapping fields of view. First, the mouse was positioned with the thorax at the magnet's isocenter and imaged using a T1-weighted accelerated spin echo sequence (Rapid Acquisition with Relaxation Enhancement, RARE) with five pairs of interleaved axial slice stacks covering brain to mid-abdomen. TR was nominally set at 1000 ms; with respiratory gating the functional TR was approximately 1500 ms (range 1300-2000 ms). The following additional parameters were used: TE=6.25 ms, RARE factor 4, MTX=256×256, FOV 45×45 mm, 15 slices of 1 mm thick, 4 mm gap between slices, and 2 signal averages. […]

[3] = tested on: mdx mice; experiment: Dosing of metabolic and endocrine biomarkers in blood, serum and tissues, mdx mice, long-term (40 weeks) weekly prednisone; assay type: in vivo

C[C@]12C=CC(=O)C=C1CC[C@@H]1[C@@H]2C(=O)C[C@@]2(C)[C@H]1CC[C@]2(O)C(=O)CO [prednisone, Prednisone]
glucose-fueled lactate production [1]: improved | valine-fueled oxygen consumption [1]: improved | 18FDG uptake in fat [2]: decreasing | fat mass accumulation (magnetic resonance) [2]: did not increase | muscle uptake of 18FDG [2]: increase | osteoporosis (bone mineral density, tomography) [2]: did not induce osteoporosis | ATP, NAD+, and glycogen in muscle and blood lactate [3]: increase
